# Assay results as given in paper PMC8787815 (2022).
# Tested on: 6xHis mCherry F30-2xdBroccoli mRNA transcript (RNA, aptamer) GGGAGACCACAACGGUUUCCCUCUAGAAAUAAUUUUGUUUAACUUUAAGAAGGAGAUAUACCAUGUCUGGUUCUCAUCAUCAUCAUCAUCAUGGUAGCAGCGGCGAAAACCUGUAUUUUCAGUCCAUGGUGAGCAAGGGCGAGGAGGAUAACAUGGCCAUCAUCAAGGAGUUCAUGCGCUUCAAGGUGCACAUGGAGGGCUCCGUGAACGGCCACGAGUUCGAGAUCGAGGGCGAGGGCGAGGGCCGCCCCUACGAGGGCACCCAGACCGCCAAGCUGAAGGUGACCAAGGGUGGCCCCCUGCCCUUCGCCUGGGACAUCCUGUCCCCUCAGUUCAUGUACGGCUCCAAGGCCUACGUGAAGCACCCCGCCGACAUCCCCGACUACUUGAAGCUGUCCUUCCCCGAGGGCUUCAAGUGGGAGCGCGUGAUGAACUUCGAGGACGGCGGCGUGGUGACCGUGACCCAGGACUCCUCCCUGCAGGACGGCGAGUUCAUCUACAAGGUGAAGCUGCGCGGCACCAACUUCCCCUCCGACGGCCCCGUAAUGCAGAAGAAGACCAUGGGCUGGGAGGCCUCCUCCGAGCGGAUGUACCCCGAGGACGGCGCCCUGAAGGGCGAGAUCAAGCAGAGGCUGAAGCUGAAGGACGGCGGCCACUACGACGCUGAGGUCAAGACCACCUACAAGGCCAAGAAGCCCGUGCAGCUGCCCGGCGCCUACAACGUCAACAUCAAGUUGGACAUCACCUCCCACAACGAGGACUACACCAUCGUGGAACAGUACGAACGCGCCGAGGGCCGCCACUCCACCGGCGGCAUGGACGAGCUGUACAAGGGCAGCUAAAGGGUGAUCUUGCCAUGUGUAUGUGGGAGACGGUCGGGUCCAUCUGAGACGGUCGGGUCCAGAUAUUCGUAUCUGUCGAGUAGAGUGUGGGCUCAGAUGUCGAGUAGAGUGUGGGCUCCCACAUACUCUGAUGAUCCAGACGGUCGGGUCCAUCUGAGACGGUCGGGUCCAGAUAUUCGUAUCUGUCGAGUAGAGUGUGGGCUCAGAUGUCGAGUAGAGUGUGGGCUGGAUCAUUCAUGGCAACGGCUGCUAACAAAGCCCGAAAGGAAGCUGAGUUGGCUGCUGCCACCGCUGAGCAAUAACUAGCAUAACCCCUUGGGGCCUCUAAACGGGUCUUGAGGGGUUUUUUGCUGAAAGGAGGAACU
# Assay: fluorescence activation (in-gel staining; plate reader)
# Conditions: PURExpress reaction with 10 μM DFHBI, 80.4 mM sucrose, 30 °C; also in-gel DFHBI staining; qualitative
structure (smiles),measurement,value
CC1=N/C(=C\c2cc(F)c(O)c(F)c2)C(=O)N1C,binding,yes
